Measurements from PMC8167103, “Regulation of Bcl-XL by non-canonical NF-κB in the context of CD40-induced drug resistance in CLL” (Cell Death and Differentiation, 2021).
pKi: −log10 of the molar value.

Molecular target: T1, NIK (Homo sapiens, UniProt Q99558)
T1 construct: gene MAP3K14
Assay: Kinase-Glo luminescence kinase assay with recombinant human active NIK, myelin basic protein and […] ATP; IC50 converted to Ki
Assay type: biochemical

T1 sequence (Q99558 whole entry): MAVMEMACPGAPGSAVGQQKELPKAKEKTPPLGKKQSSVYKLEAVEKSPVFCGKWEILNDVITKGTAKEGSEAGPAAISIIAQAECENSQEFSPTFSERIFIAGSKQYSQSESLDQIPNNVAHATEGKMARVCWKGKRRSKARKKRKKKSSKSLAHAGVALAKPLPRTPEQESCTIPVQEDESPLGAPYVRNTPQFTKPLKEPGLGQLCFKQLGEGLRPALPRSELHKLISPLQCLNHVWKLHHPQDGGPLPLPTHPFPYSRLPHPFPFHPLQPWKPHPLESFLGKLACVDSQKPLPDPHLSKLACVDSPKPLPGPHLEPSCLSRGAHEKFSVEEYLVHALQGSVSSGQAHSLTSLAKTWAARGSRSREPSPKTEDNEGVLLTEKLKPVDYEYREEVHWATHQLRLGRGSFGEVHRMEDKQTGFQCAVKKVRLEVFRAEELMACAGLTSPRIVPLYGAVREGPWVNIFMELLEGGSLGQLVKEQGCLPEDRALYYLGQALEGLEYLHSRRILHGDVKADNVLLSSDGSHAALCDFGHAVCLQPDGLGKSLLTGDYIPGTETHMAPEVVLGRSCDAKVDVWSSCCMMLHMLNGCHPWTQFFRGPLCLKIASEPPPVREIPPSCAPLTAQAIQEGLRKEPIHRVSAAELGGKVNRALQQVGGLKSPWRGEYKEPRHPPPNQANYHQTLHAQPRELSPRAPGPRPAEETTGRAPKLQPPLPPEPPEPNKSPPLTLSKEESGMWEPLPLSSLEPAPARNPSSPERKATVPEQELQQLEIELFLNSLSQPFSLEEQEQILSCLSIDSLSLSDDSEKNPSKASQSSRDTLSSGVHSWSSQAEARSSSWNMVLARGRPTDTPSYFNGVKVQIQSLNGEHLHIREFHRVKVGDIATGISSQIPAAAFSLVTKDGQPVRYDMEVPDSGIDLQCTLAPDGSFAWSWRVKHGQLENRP

CC(C)(O)C#Cc1ccc2c(c1)N(c1ccnc(N)n1)CC2 [CW15337, 4-(1-(2-aminopyrimidin-4-yl)indolin-6-yl)-2-methylbut-3-yn-2-ol]
pKi: 7.60
